Counter-ions that a name gives are not always drawn.
What was measured:
[1] = target: T1, AXL (Homo sapiens, UniProt P30530); test: IMAP fluorescence polarization kinase assay, AXL; type: biochemical; settings: ATP 24.7 μM, enzyme 2.5 nM, 240 minutes, read-out: AXL inhibitory constant (Ki)
T1 sequence (P30530 26-894): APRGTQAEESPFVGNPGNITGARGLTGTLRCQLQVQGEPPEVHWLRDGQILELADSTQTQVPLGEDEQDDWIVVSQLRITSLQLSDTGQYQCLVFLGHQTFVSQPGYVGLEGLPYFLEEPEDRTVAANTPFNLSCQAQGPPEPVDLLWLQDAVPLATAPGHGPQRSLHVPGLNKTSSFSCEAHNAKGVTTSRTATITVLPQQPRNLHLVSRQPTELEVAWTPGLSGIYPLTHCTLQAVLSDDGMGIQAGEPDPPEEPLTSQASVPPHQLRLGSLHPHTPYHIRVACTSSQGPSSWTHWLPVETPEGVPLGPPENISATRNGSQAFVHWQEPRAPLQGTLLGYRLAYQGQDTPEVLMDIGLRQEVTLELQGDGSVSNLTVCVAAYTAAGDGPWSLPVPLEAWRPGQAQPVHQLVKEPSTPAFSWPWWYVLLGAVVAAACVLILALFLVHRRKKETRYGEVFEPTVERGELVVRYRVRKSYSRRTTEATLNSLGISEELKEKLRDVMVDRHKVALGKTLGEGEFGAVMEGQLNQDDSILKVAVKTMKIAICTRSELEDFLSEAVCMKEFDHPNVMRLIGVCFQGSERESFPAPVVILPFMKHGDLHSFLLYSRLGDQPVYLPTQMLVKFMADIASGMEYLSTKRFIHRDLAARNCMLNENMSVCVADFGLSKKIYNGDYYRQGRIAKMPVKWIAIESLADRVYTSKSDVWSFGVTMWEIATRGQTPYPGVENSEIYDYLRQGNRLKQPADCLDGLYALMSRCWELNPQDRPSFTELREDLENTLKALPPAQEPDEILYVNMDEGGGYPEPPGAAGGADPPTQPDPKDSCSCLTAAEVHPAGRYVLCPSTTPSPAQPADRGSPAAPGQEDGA
Protocol: (§1) Activities of compounds against each of TYRO3, AXL, and MERTK as well as against FLT3, were determined using an immobilized metal ion affinity-based fluorescence polarization (“IMAP”) assay. A fluorescently-labeled substrate peptide was phosphorylated in the kinase reaction, after which a binding solution containing large trivalent metal-based nanoparticles was added and the phosphorylated substrate binds to these beads. This reduces the rotational speed of the substrate which is then detected using fluorescence polarization as a read-out.
(§2) The substrates used for each enzyme are as follows: AXL: 5F1-KKKKEEIYFFFG-NH2(SEQ ID NO:1); FLT3: 5F1-KKKKEEIYFFF-NH2 (SEQ ID NO:2); MERTK: 5F1-EFPIYDFLPAKKK-NH2 (SEQ ID NO:3); and TYRO3: 5F1-EFPIYDFLPAKKK-NH2 (SEQ ID NO:4).
(§3) This assay was performed in a 384-well, polystyrene microplate in a final volume of 8 μl. Substrate (final concentration=400 nM), ATP (final concentrations=24.7μM for AXL; 2.74 μM for FLT3; 2.69 μM for MERTK; and 54.0 μM for TYRO3), compounds and enzyme (final concentrations=2.5 nM for AXL, FLT3 and TYRO3; 1.5 nM for MERTK) were pipetted in this order into the appropriate reaction buffer (AXL: 50 mM HEPES, pH 8.0, 1 mM DTT, 10 mM MgCl2, 0.01% BRU35, 0.01% Triton X-100; FLT3: 50 mM HEPES, pH 8.0, 1 mM DTT, 10 mM MgCl2, 0.01% Triton X-100, 0.01% NP40; MERTK/TYRO3: 50 mM HEPES, pH 8.0, 1 mM DTT, 10 mM MgCl2, 0.01% Triton X-100) and incubated at room temperature for varying times (AXL, FLT3 and MERTK: 240 minutes; TYRO3: 60 minutes). IMAP binding solution was then dispensed, the plate incubated for 60 minutes at room temperature and the fluorescence polarization measured. Data were analyzed using XLfit.

[2] = target: T2, TYRO3 (Homo sapiens, UniProt Q06418); test: IMAP fluorescence polarization kinase assay, TYRO3; type: biochemical; settings: ATP 54.0 μM, enzyme 2.5 nM, 60 minutes, read-out: TYRO3 inhibitory constant (Ki)
T2 sequence (Q06418 41-890): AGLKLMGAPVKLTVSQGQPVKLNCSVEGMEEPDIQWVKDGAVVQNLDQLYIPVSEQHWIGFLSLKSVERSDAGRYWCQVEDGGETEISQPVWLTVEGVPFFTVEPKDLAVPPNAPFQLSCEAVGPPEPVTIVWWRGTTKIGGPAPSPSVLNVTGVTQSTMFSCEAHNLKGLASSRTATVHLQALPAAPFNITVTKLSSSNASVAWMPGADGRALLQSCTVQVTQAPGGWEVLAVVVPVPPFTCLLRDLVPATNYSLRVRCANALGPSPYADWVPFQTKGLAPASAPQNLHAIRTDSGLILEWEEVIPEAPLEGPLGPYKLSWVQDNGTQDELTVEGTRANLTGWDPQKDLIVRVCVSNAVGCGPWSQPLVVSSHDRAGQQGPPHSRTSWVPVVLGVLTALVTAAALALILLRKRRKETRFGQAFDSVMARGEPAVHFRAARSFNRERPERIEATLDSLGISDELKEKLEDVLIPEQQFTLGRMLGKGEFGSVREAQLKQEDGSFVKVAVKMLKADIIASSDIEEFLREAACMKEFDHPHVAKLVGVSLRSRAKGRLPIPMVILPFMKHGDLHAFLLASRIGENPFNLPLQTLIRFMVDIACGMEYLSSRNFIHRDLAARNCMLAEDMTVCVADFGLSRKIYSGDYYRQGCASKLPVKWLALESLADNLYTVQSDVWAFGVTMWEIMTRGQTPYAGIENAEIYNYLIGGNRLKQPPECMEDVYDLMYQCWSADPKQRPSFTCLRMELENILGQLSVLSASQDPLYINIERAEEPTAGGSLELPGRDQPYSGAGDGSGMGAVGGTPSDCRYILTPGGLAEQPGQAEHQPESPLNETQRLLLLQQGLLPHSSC
Protocol: as §1, §2, §3

| SMILES | Ki [1] [nM] | Ki [2] [nM] |
| --- | --- | --- |
| CCCc1cc2c(N[C@H]3CC[C@H](N)CC3)c(C(=O)Nc3ccc(F)cc3)cnc2[nH]1 [Compound 100, 4-(((1r,4r)-4-aminocyclohexyl)amino)-N-(4-fluorophenyl)-2-propyl-1H-pyrrolo [2,3-b]pyridine-5-carboxamide hydrochloride] | 1000 to 10000 | < 100 |
| CCCc1cc2c(N[C@H]3CC[C@H](O)CC3)c(C(=O)Nc3ccc(F)cc3)cnc2[nH]1 [Compound 101] | > 10000 | 100 to 1000 |
| CCCc1cc2c(N[C@H]3CC[C@H](O)CC3)c(C(=O)NC3CCN(c4ncccn4)CC3)cnc2[nH]1 [Compound 104] | 1000 to 10000 | < 100 |
| CCCc1cc2c(N[C@H]3CC[C@H](O)CC3)c(-c3ccc(CN4CCOCC4)cc3)cnc2[nH]1 [Compound 106, (1r,4r)-4-((5-(4-(morpholinomethyl)phenyl)-2-propyl-1H-pyrrolo[2,3-b]pyridin-4-yl)amino)cyclohexanol hydrochloride] | > 10000 | 100 to 1000 |
| CCCc1cc2c(N[C@H]3CC[C@H](O)CC3)c(-c3cnn(CCN(C)C)c3)cnc2[nH]1 [Compound 107] | 1000 to 10000 | 100 to 1000 |
| CCCc1cc2c(N[C@H]3CC[C@H](N)CC3)c(-c3cnn(C)c3)cnc2[nH]1 [Compound 108, (1r,4r)-N1-(5-(1-methyl-1H-pyrazol-4-yl)-2-propyl-1H-pyrrolo[2,3-b]pyridine-4-yl)cyclohexane-1,4-diamine hydrochloride] | 1000 to 10000 | < 100 |
| N[C@H]1CC[C@H](Nc2c(C(=O)NCc3ccc(-n4ccnc4)cc3)cnc3[nH]c(-c4ccccc4)cc23)CC1 [Compound 110] | 1000 to 10000 | < 100 |
| CCCc1cc2c(N[C@H]3CC[C@H](N)CC3)c(-c3ccccn3)cnc2[nH]1 [Compound 113] | 1000 to 10000 | < 100 |
| CCCc1cc2c(N[C@H]3CC[C@H](N)CC3)c(-c3nccs3)cnc2[nH]1 [Compound 117] | 100 to 1000 | < 100 |
| CCCc1cc2c(N[C@H]3CC[C@H](N)CC3)c(-c3ccnc(N4CCCC4)n3)cnc2[nH]1 [Compound 118, (1r,4r)-N1-(2-propyl-5-(2-(pyrrolidin-1-yl)pyrimidin-4-yl)-1H-pyrrolo[2,3-b]pyridine-4-yl)cyclohexane-1,4-diamine hydrochloride] | 100 to 1000 | < 100 |
| CCc1cc2c(N[C@H]3CC[C@H](N)CC3)c(C(=O)NCc3ccc(-n4ccnc4)cc3)cnc2[nH]1 [Compound 119, N-(4-(1H-imidazol-1-yl)benzyl)-4-(((1r,4r)-4-aminocyclohexyl)amino)-2-ethyl-1H-pyrrolo[2,3-b]pyridine-5-carboxamide] | 100 to 1000 | < 100 |
| CCCc1cc2c(N[C@H]3CC[C@H](N)CC3)c(-c3ccc(N)cn3)cnc2[nH]1 [Compound 120] | 1000 to 10000 | < 100 |
| CCCc1cc2c(N[C@H]3CC[C@H](N)CC3)c(C(=O)NCc3ccc(-n4ccnc4)cc3)cnc2[nH]1 [Compound 121] | 100 to 1000 | < 100 |
| CCCc1cc2c(N[C@H]3CC[C@H](N)CC3)c(-c3cc(OC)ncn3)cnc2[nH]1 [Compound 122] | 100 to 1000 | < 100 |
| CCCc1cc2c(N[C@H]3CC[C@H](N)CC3)c(C(=O)NC3CCOCC3)cnc2[nH]1 [Compound 124] | 100 to 1000 | < 100 |
| CCCc1cc2c(N[C@H]3CC[C@H](O)CC3)c(-c3ccc(CN4CCCC4)cn3)cnc2[nH]1 [Compound 125] | 100 to 1000 | < 100 |
| N[C@H]1CC[C@H](Nc2c(C(=O)NCc3ccc(-n4ccnc4)cc3)cnc3[nH]c(C4CCCC4)cc23)CC1 [Compound 126] | 100 to 1000 | < 100 |
| CCCc1cc2c(N[C@H]3CC[C@H](N)CC3)c(-c3ccc(C)nn3)cnc2[nH]1 [Compound 127] | 100 to 1000 | < 100 |
| C#Cc1cc2c(N[C@H]3CC[C@H](N)CC3)c(C(=O)Nc3ccc(F)cc3)cnc2[nH]1 [Compound 128, [4-1(4-aminocyclohexyl)amino]-2-ethynyl-N-(4-fluorophenyl)-1H-pyrrolo[2,3-b]pyridine-5-carboxamide] | 1000 to 10000 | 100 to 1000 |

Second part, the compound after the results:

| Ki [1] [nM] | Ki [2] [nM] | SMILES |
| --- | --- | --- |
| 100 to 1000 | < 100 | CCCc1cc2c(N[C@H]3CC[C@H](O)CC3)c(C(=O)NCc3ccc(-n4ccnc4)cc3)cnc2[nH]1 [Compound 102] |
| 100 to 1000 | 1000 to 10000 | Cc1cc2c(N[C@H]3CC[C@H](N)CC3)c(C(=O)Nc3ccc(F)cc3)cnc2[nH]1 [Compound 103] |
| 100 to 1000 | < 100 | CCCc1cc2c(N[C@H]3CC[C@H](O)CC3)c(-c3ccc(CN4CCOCC4)cn3)cnc2[nH]1 [Compound 105] |
| 100 to 1000 | < 100 | CCCc1cc2c(N[C@H]3CC[C@H](O)CC3)c(-c3ccc(CNCC45C[C@H]6C[C@@H](C4)C[C@@H](C5)C6)cn3)cnc2[nH]1 [Compound 109] |
| 100 to 1000 | < 100 | CCCc1cc2c(N[C@H]3CC[C@H](N)CC3)c(-c3cc(NC)ncn3)cnc2[nH]1 [Compound 111, (1r,4r)-N^1-(5-(6-(methylamino)pyrimidin-4-yl)-2-propyl-1H-pyrrolo[2,3-b]pyridine-4-yl)cyclohexane-1,4-diamine hydrochloride] |
| 100 to 1000 | < 100 | CCCc1cc2c(N[C@H]3CC[C@H](N)CC3)c(-c3cc(NC(C)C)ncn3)cnc2[nH]1 [Compound 112] |
| 100 to 1000 | < 100 | CCCc1cc2c(N[C@H]3CC[C@H](N)CC3)c(-c3ccc(F)cn3)cnc2[nH]1 [Compound 114] |
| < 100 | < 100 | CCCc1cc2c(N[C@H]3CC[C@H](N)CC3)c(-c3ccc(S(=O)(=O)N4CCOCC4)cn3)cnc2[nH]1 [Compound 115] |
| 100 to 1000 | < 100 | CCCc1cc2c(N[C@H]3CC[C@H](N)CC3)c(-c3cc(N)ncn3)cnc2[nH]1 [Compound 116] |
| < 100 | < 100 | CCCc1cc2c(N[C@H]3CC[C@H](N)CC3)c(-c3ccnc(N)n3)cnc2[nH]1 [Compound 123] |

From patent publication US20200071326A1, “TAM KINASE INHIBITORS” (Syros Pharmaceuticals, Inc., priority 2017, published 2020)
